Source: the supplement of paper PMC10307832

Key:
Experiment in all cases: relative viability (nuclei count vs DMSO), 5 days (fraction); higher = more cells survive
Daporinad + Trametinib = compound: O=C(/C=C/c1cccnc1)NCCCCC1CCN(C(=O)c2ccccc2)CC1 [Daporinad] + CC(=O)Nc1cccc(-n2c(=O)n(C3CC3)c(=O)c3c(Nc4ccc(I)cc4F)n(C)c(=O)c(C)c32)c1 [Trametinib] (partner 0.02 µM)
Method in brief: (§1)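 Relative viability divides the nuclei count in treated wells by that in vehicle wells. Lung cancer cell lines were seeded in 1536-well plates, dosed by pin tool the next day, and fixed and stained after 5 days in one step with final 0.05% Triton X-100, 1% formaldehyde and 1 ug/ml Hoechst. Dosing was a single drug or a fixed anchor-drug dose plus five library-drug doses (not always all listed) in √10 steps, and values are medians of duplicate plates imaged at 4×.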

R406 + Bortezomib = compound: COc1cc(Nc2ncc(F)c(Nc3ccc4c(n3)NC(=O)C(C)(C)O4)n2)cc(OC)c1OC [R406] + CC(C)C[C@H](NC(=O)[C@H](Cc1ccccc1)NC(=O)c1cnccn1)B(O)O [Bortezomib] (partner 0.002 µM)
Method in brief: as §1

Daporinad + Foretinib = compound: O=C(/C=C/c1cccnc1)NCCCCC1CCN(C(=O)c2ccccc2)CC1 [Daporinad] + COc1cc2c(Oc3ccc(NC(=O)C4(C(=O)Nc5ccc(F)cc5)CC4)cc3F)ccnc2cc1OCCCN1CCOCC1 [Foretinib] (partner 0.25 µM)
Method in brief: as §1

R406 + Dasatinib = compound: COc1cc(Nc2ncc(F)c(Nc3ccc4c(n3)NC(=O)C(C)(C)O4)n2)cc(OC)c1OC [R406] + Cc1nc(Nc2ncc(C(=O)Nc3c(C)cccc3Cl)s2)cc(N2CCN(CCO)CC2)n1 [Dasatinib] (partner 0.075 µM)
Method in brief: as §1

Row | Cell Line | relative viability (Daporinad + Trametinib; first compound 0.0005 µM) | relative viability (Daporinad + Trametinib; first compound 0.001581 µM) | relative viability (Daporinad + Trametinib; first compound 0.005 µM) | relative viability (Daporinad + Trametinib; first compound 0.01581 µM) | relative viability (R406 + Bortezomib; first compound 0.08 µM) | relative viability (R406 + Bortezomib; first compound 0.253 µM) | relative viability (R406 + Bortezomib; first compound 0.8 µM) | relative viability (R406 + Bortezomib; first compound 2.53 µM) | relative viability (R406 + Bortezomib; first compound 8 µM) | relative viability (Daporinad + Foretinib; first compound 0.0005 µM) | relative viability (Daporinad + Foretinib; first compound 0.001581 µM) | relative viability (Daporinad + Foretinib; first compound 0.005 µM) | relative viability (Daporinad + Foretinib; first compound 0.01581 µM) | relative viability (R406 + Dasatinib; first compound 0.08 µM) | relative viability (R406 + Dasatinib; first compound 0.253 µM) | relative viability (R406 + Dasatinib; first compound 0.8 µM) | relative viability (R406 + Dasatinib; first compound 2.53 µM) | relative viability (R406 + Dasatinib; first compound 8 µM)
1 | COR-L 105 | 0.445 | 0.41 | 0.496 | 0.469 | 0.68 | 0.84 | 1.06 | 0.315 | 0.246 | 1.09 | 0.812 | 0.983 | 1.14 | 0.332 | 0.387 | 0.354 | 0.317 | 0.204
2 | SK-LU-1 | 0.48 | 0.522 | 0.55 | 0.615 | 1.16 | 1.32 | 1.09 | 0.384 | 0.544 | 0.908 | 0.872 | 0.922 | 0.829 | 0.164 | 0.174 | 0.186 | 0.0685 | 0.0703
3 | LXF-289 | 0.569 | 0.663 | 0.689 | 0.681 | 0.913 | 0.953 | 1.01 | 1.04 | 0.483 | 0.892 | 1.09 | 0.968 | 0.962 | 0.229 | 0.241 | 0.234 | 0.135 | 0.0357
4 | PC-3 [JPC-3] | 0.667 | 0.714 | 0.758 | 0.842 | 0.916 | 0.866 | 0.927 | 0.758 | 0.755 | 0.978 | 1.03 | 1.12 | 1.05 | 0.951 | 1.09 | 1.27 | 0.915 | 0.737
5 | NCI-H661 | 0.665 | 0.746 | 0.52 | 0.376 | 0.769 | 0.877 | 0.945 | 0.721 | 0.469 | 0.999 | 1.03 | 0.671 | 0.573 | 0.847 | 0.824 | 1.1 | 0.684 | 0.402
6 | NCI-H1666 | 0.692 | 0.843 | 0.821 | 0.9 | 0.803 | 1.03 | 0.853 | 0.336 | 0.617 | 0.962 | 0.958 | 0.91 | 0.943 | 0.811 | 0.943 | 0.891 | 0.648 | 0.409
7 | NCI-H2085 | 0.515 |  | 0.653 | 0.538 | 0.996 | 1.14 | 1.1 | 0.708 | 0.775 | 0.872 | 0.973 | 1.11 | 0.781 | 0.249 | 0.283 | 0.251 | 0.222 | 0.179
8 | NCI-H1734 | 0.725 | 0.764 | 0.724 | 0.491 | 0.828 | 1.16 | 1.05 | 0.344 | 0.269 | 0.871 | 0.875 | 0.938 | 0.679 | 0.537 | 0.559 | 0.459 | 0.393 | 0.27
9 | NCI-H2126 | 0.562 | 0.548 | 0.604 | 0.587 | 1.05 | 1.13 | 1.24 | 1.03 | 1.04 | 1.24 | 1.15 | 1.06 | 1.34 | 0.6 | 0.619 | 0.596 | 0.496 | 0.243
10 | EMC-BAC-2 | 0.868 | 0.935 | 0.8 | 0.433 | 1.04 | 1.13 | 1.12 | 1.04 | 0.844 | 1.14 | 1.1 | 0.518 | 0.314 | 0.293 | 0.331 | 0.385 | 0.186 | 0.173
11 | NCI-H1993 | 0.485 | 0.514 | 0.633 | 0.555 | 1.04 | 1.12 | 1.11 | 0.544 | 0.6 | 0.749 | 0.741 | 0.746 | 0.918 | 0.564 | 0.631 | 0.704 | 0.316 | 0.453
12 | NCI-H596 | 0.704 | 0.791 | 0.74 | 0.48 | 1.1 | 1.28 | 0.758 | 0.984 | 0.475 | 0.864 | 0.965 | 0.819 | 0.325 | 0.619 | 0.61 | 0.686 | 0.505 | 0.173
13 | NCI-H650 | 1.05 | 1.14 | 1.01 | 1.27 | 0.712 | 0.852 | 0.977 | 0.625 | 0.389 | 1.08 | 1.09 | 1.01 | 1.08 | 0.463 | 0.513 | 0.483 | 0.426 | 0.425
14 | SW 1573 | 0.499 | 0.45 | 0.447 | 0.28 | 0.994 | 1.23 | 1.35 | 0.768 | 0.569 | 0.962 | 0.701 | 1.06 | 0.744 | 0.492 | 0.539 | 0.602 | 0.366 | 0.149
15 | ChaGo-K-1 | 0.86 | 0.914 | 0.767 | 0.428 | 1.02 | 1.06 | 1.11 | 0.823 | 0.347 | 0.968 | 0.943 | 0.966 | 0.382 | 0.568 | 0.579 | 0.661 | 0.498 | 0.442
16 | NCI-H1650 | 0.565 | 0.628 | 0.635 | 0.572 | 0.244 | 0.214 | 0.18 | 0.208 | 0.197 | 1.29 | 1.21 | 1.13 | 0.498 | 0.302 | 0.362 | 0.288 | 0.16 | 0.168
17 | NCI-H2009 | 0.261 | 0.35 | 0.315 | 0.31 | 0.983 | 1.11 | 1.24 | 0.427 | 0.27 | 1.16 | 1.24 | 1.23 | 0.897 | 0.25 | 0.302 | 0.328 | 0.182 | 0.13
18 | LOU-NH91 | 0.797 | 0.847 | 0.922 | 0.941 | 0.427 | 0.4 | 0.469 | 0.496 | 0.471 | 0.95 | 0.991 | 1.11 | 1.22 | 0.593 | 0.617 | 0.545 | 0.354 | 0.334
